Source: US20210371463A1, “Modified Netrin-1 Peptides and Compositions for Cardioprotection” (The Regents of the University of California, priority 2018, published 2021)
Bridge positions count the residues as written; N and C are the ends. Ends that are not written are not given here. mini‑PEG = diethylene glycol

Tested on: mouse hearts subjected to ischemia/reperfusion (I/R) injury
Experiment: Langendorff perfusion ischemia/reperfusion (I/R) injury, infarct size analysis (TTC staining)
Design: % MI Reduction: concentration or dose not given beside the values
Details: for % MI Reduction: vs. I/R Control; for % Improvement in MI Reduction: modified peptide vs. closest prior art peptide (V1-9aa, V2-10aa or V3-11aa); for Infarct size: fragments of prior art peptides, Control I/R 37.6±1.3%, Mean±SEM, p<0.001
Method: Male C57BL/6J mice (8-12 weeks old) were obtained from the Charles River Laboratories (Wilmington, Mass., USA). After anesthetized with intraperitoneal pentobarbitone (60 mg/kg), mouse hearts were harvested immediately and the aortas were cannulated with a 20-gauge stainless steel blunt needle and transferred to the Langendorff rig and perfused retrograde instantly with modified Krebs-Henseleit buffer (KHB) for 30 minutes as previously described. See Bouhidel et al. Front Biosci (Landmark Ed) 2014; 19:566-570, and Zhang et al., J Mol Cell Cardiol. 2010; 48:1060-1070. Then hearts were pre-perfused for 45 minutes with or without netrin-1 (100 ng/ml), or different peptide fragments at the same molar concentration 1.47 nmol/L as netrin-1, prior to being subjected to ischemia/reperfusion (I/R) injury (a 20-minute global ischemia followed by a 60-minute reperfusion with or without netrin-1 or different peptide fragments). Hearts were then harvested for analyses of infarct size. For post-conditioning treatment with peptide fragments, hearts underwent 40 minutes of KHB perfusion, 20 minutes of global ischemia, and a 60-minute reperfusion with different peptide fragments.
At the end of I/R protocol, hearts were sliced perpendicular to the long-axis of the heart at 1 mm intervals and stained with 1% triphenyl tetrazolium chloride (TTC) in PBS for 10 minutes at room temperature. After washing with PBS once, sections of the hearts will be fixed in 10% formalin overnight. The heart slices were then digitally photographed for planimetry using NIH Image 1.62. Infarct size is expressed as an infarct-to-risk zone ratio (the risk zone is the whole ventricular volume in this global ischemic model).
Densitometric data of western blotting was obtained by software Image J. Grouped data was analyzed by software Gradpad Prism δ. All values are expressed as Mean±SEM. Comparisons of more than two groups were performed using a one way ANOVA analysis with Newman-Keuls test as a post-hoc test. Statistical significance is set as p<0.05.

[1] = Table 2, modified netrin-1 peptides, I/R Control 43.1625, p < 0.001 vs. Control
[2] = Table 2, modified netrin-1 peptides
[3] = Table 1, prior art peptides, I/R Control 37.6

| Substance | Infarct Size Mean (%) [1] [%] | % MI Reduction [2] [%] | % Improvement in MI Reduction | Infarct Size Mean (%) [3] [%] | % MI Reduction (Table 1, prior art peptides) [%] | Infarct size [%] |
| --- | --- | --- | --- | --- | --- | --- |
| (mini-PEG)-CDCRHNTAG ({mini‑PEG}-CDCRHNTAG; cysteine pairing not given here) [V1P] | 10.0100 | 77 | (77 − 55)/55 = 40% | – | – | – |
| (mini-PEG)-CLNCRHNTAG ({mini‑PEG}-CLNCRHNTAG; cysteine pairing not given here) [V2P] | 18.3315 | 58 | (58 − 51)/51 = 14% | – | – | – |
| (mini-PEG)-CPCKDGVTIGIT ({mini‑PEG}-CPCKDGVTIGIT; cysteine pairing not given here) [V3P] | 12.9700 | 70 | – | – | – | – |
| CDCRHNTAG (disulfide 1-3) [V1C] | 11.2700 | 74 | (74 − 55)/55 = 35% | – | – | – |
| CDCRHNTAG (not fully specified (bridges); cysteine pairing not given here) [V1-9aa, reference compound] | – | – | – | 16.8 | 55 | 16.8±2.2 |
| CLNCRHNTAG (Peptide based on human Netrin-1 sequence) [V2-10aa, reference compound] | – | – | – | 18.6 | 51 | 18.6±1.7 |
| CPCKDGVTGIT (Peptide based on human Netrin-1 sequence) [V3-11aa, reference compound] | – | – | – | 16.7 | 56 | 16.7±3.0 |
| SDCRHNTAG (Peptide based on human Netrin-1 sequence) [V1S] | 12.7750 | 71 | (71 − 55)/55 = 29% | – | – | – |
| TDCRHNTAG [V1T] | 15.4650 | 64 | (64 − 55)/55 = 16% | – | – | – |
